Source: PubChem BioAssay AID272 (DTP/NCI, 2004)
Several values for one entry are separate records, joined by “and”; a condition that tells them apart may be missing. Identical values can stand only once. Records with an inconclusive call do not appear.

Tested on: Lewis lung carcinoma i.m., BDF1 mice, T/C %
Assay: NCI In Vivo Anticancer Drug Screen. Data for tumor model Lewis Lung Carcinoma (intramuscular) in B6D2F1 (BDF1) mice
Outline: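 Tumour-bearing mice were dosed with compound, and either their survival or their tumour size was measured. Results were expressed relative to vehicle-treated controls as T/C.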

[1] = endpoint: mean tumor weight (est.), dose: 25.0 mg/kg/injection, schedule: Q01DX011 (ip), vehicle: saline, higher = larger tumour
[2] = endpoint: median survival time, dose: 2.0 mg/kg/injection, schedule: Q01DX011 (ip), vehicle: saline, higher = longer survival
[3] = endpoint: median survival time, dose: 4.0 mg/kg/injection, schedule: Q01DX011 (ip), vehicle: saline, higher = longer survival
[4] = endpoint: mean tumor weight (est.), dose: 100.0 mg/kg/injection, schedule: Q01DX011 (ip), vehicle: saline, higher = larger tumour

`OC1CCCC2CCC[N-]C12.OC1CCCC2CCC[N-]C12.[O]=[V][OH]` (stereo unspecified) was tested, and the T/C (endpoint: mean tumor weight (est.), dose: 6.25 mg/kg/injection, schedule: Q01DX011 (ip), vehicle: saline, higher = larger tumour) was 86 % of control, the T/C (endpoint: mean tumor weight (est.), dose: 12.5 mg/kg/injection, schedule: Q01DX011 (ip), vehicle: saline, higher = larger tumour) was 70 % of control and the T/C [1] was 50 % of control. For the same compound, the T/C (endpoint: median survival time, dose: 6.25 mg/kg/injection, schedule: Q01DX011 (ip), vehicle: saline, higher = longer survival) was 101 % of control, the T/C (endpoint: median survival time, dose: 12.5 mg/kg/injection, schedule: Q01DX011 (ip), vehicle: saline, higher = longer survival) was 107 % of control and the T/C (endpoint: median survival time, dose: 25.0 mg/kg/injection, schedule: Q01DX011 (ip), vehicle: saline, higher = longer survival) was 107 % of control.

For `CN(C)C(=S)S`, the T/C (endpoint: mean tumor weight, dose: 125.0 mg/kg/injection, schedule: Q01DX011 (ip), vehicle: saline, higher = larger tumour) was 58 % of control and 59 % of control, the T/C (endpoint: mean tumor weight, dose: 250.0 mg/kg/injection, schedule: Q01DX011 (ip), vehicle: saline, higher = larger tumour) was 57 % of control and the T/C (endpoint: median survival time, dose: 125.0 mg/kg/injection, schedule: Q01DX011 (ip), vehicle: saline, higher = longer survival) was 102 % of control.

In the case of `CCCCCCCCCCCC[S+](C)C`, the T/C [2] is reported as 100 % of control and the T/C [3] is reported as 114 % of control.

In the case of `Nc1nc(Cl)nc2c1ncn2C1OC(CO)C(O)C1O` (stereo unspecified), the T/C (endpoint: mean tumor weight (est.), dose: 25.0 mg/kg/injection, schedule: Q01DX011 (ip), vehicle: saline with Tween-80, higher = larger tumour) is reported as 72 % of control, the T/C (endpoint: mean tumor weight (est.), dose: 50.0 mg/kg/injection, schedule: Q01DX011 (ip), vehicle: saline with Tween-80, higher = larger tumour) is reported as 72 % of control and the T/C (endpoint: mean tumor weight (est.), dose: 100.0 mg/kg/injection, schedule: Q01DX011 (ip), vehicle: saline with Tween-80, higher = larger tumour) is reported as 36 % of control. The T/C (endpoint: median survival time, dose: 25.0 mg/kg/injection, schedule: Q01DX011 (ip), vehicle: saline with Tween-80, higher = longer survival) was 102 % of control and the T/C (endpoint: median survival time, dose: 50.0 mg/kg/injection, schedule: Q01DX011 (ip), vehicle: saline with Tween-80, higher = longer survival) was 93 % of control.

For `CS(=O)(=O)OCCCCOS(C)(=O)=O`, the T/C (endpoint: mean tumor weight, dose: 12.5 mg/kg/injection, schedule: Q01DX011 (ip), vehicle: Klucel (hydroxypropylcellulose) (HPC), higher = larger tumour) was 88 % of control, the T/C (endpoint: mean tumor weight, dose: 25.0 mg/kg/injection, schedule: Q01DX011 (ip), vehicle: Klucel (hydroxypropylcellulose) (HPC), higher = larger tumour) was 109 % of control and the T/C (endpoint: median survival time, dose: 12.5 mg/kg/injection, schedule: Q01DX011 (ip), vehicle: Klucel (hydroxypropylcellulose) (HPC), higher = longer survival) was 89 % of control.

For `O=c1n(CC2CO2)c(=O)n(CC2CO2)c(=O)n1CC1CO1` (stereo unspecified), the T/C (endpoint: median survival time, dose: 20.0 mg/kg/injection, schedule: Q01DX011 (ip), vehicle: saline, higher = longer survival) was 115 % of control, the T/C (endpoint: median survival time, dose: 30.0 mg/kg/injection, schedule: Q01DX011 (ip), vehicle: saline, higher = longer survival) was 120 % of control and 122 % of control and the T/C (endpoint: median survival time, dose: 40.0 mg/kg/injection, schedule: Q01DX011 (ip), vehicle: saline, higher = longer survival) was 117 % of control and 124 % of control. For the same compound, the T/C (endpoint: median survival time, dose: 70.0 mg/kg/injection, schedule: Q01DX011 (ip), vehicle: saline, higher = longer survival) was 114 % of control, the T/C (endpoint: median survival time, dose: 80.0 mg/kg/injection, schedule: Q01DX011 (ip), vehicle: saline, higher = longer survival) was 90 % of control and the T/C (endpoint: median survival time, dose: 90.0 mg/kg/injection, schedule: Q01DX011 (ip), vehicle: saline, higher = longer survival) was 115 % of control.

In the case of `CCCCN(C)C(=S)S[Te](SC(=S)N(C)CCCC)(SC(=S)N(C)CCCC)SC(=S)N(C)CCCC`, the T/C [4] is reported as 59 % of control, the T/C (endpoint: mean tumor weight (est.), dose: 200.0 mg/kg/injection, schedule: Q01DX011 (ip), vehicle: saline, higher = larger tumour) is reported as 36 % of control and the T/C (endpoint: mean tumor weight (est.), dose: 400.0 mg/kg/injection, schedule: Q01DX011 (ip), vehicle: saline, higher = larger tumour) is reported as 17 % of control. For the same compound, the T/C (endpoint: median survival time, dose: 100.0 mg/kg/injection, schedule: Q01DX011 (ip), vehicle: saline, higher = longer survival) was 114 % of control, the T/C (endpoint: median survival time, dose: 200.0 mg/kg/injection, schedule: Q01DX011 (ip), vehicle: saline, higher = longer survival) was 110 % of control and the T/C (endpoint: median survival time, dose: 400.0 mg/kg/injection, schedule: Q01DX011 (ip), vehicle: saline, higher = longer survival) was 121 % of control.

`CSc1nc(N)cc(NC(=O)CCl)n1` was tested, and the T/C [1] was 92 % of control, the T/C (endpoint: mean tumor weight (est.), dose: 50.0 mg/kg/injection, schedule: Q01DX011 (ip), vehicle: saline, higher = larger tumour) was 69 % of control and the T/C [4] was 35 % of control.

For `CC1=C2C(=C[C@@](C)(CO)[C@@H]2O)C(=O)[C@](C)(O)C12CC2`, the T/C (endpoint: mean tumor weight, dose: 0.1 mg/kg/injection, schedule: Q01DX011 (ip), vehicle: other, higher = larger tumour) was 89 % of control, the T/C (endpoint: mean tumor weight, dose: 0.2 mg/kg/injection, schedule: Q01DX011 (ip), vehicle: other, higher = larger tumour) was 65 % of control and the T/C (endpoint: mean tumor weight, dose: 0.4 mg/kg/injection, schedule: Q01DX011 (ip), vehicle: other, higher = larger tumour) was 58 % of control.

In the case of `COC(=O)C1Cc2cncn2C(=O)N1` (stereo unspecified), the T/C (endpoint: median survival time, dose: 4.0 mg/kg/injection, schedule: Q01DX009 (ip), vehicle: water, higher = longer survival) is reported as 113 % of control, the T/C (endpoint: median survival time, dose: 8.0 mg/kg/injection, schedule: Q01DX009 (ip), vehicle: water, higher = longer survival) is reported as 108 % of control and the T/C (endpoint: median survival time, dose: 16.0 mg/kg/injection, schedule: Q01DX009 (ip), vehicle: water, higher = longer survival) is reported as 104 % of control. For the same compound, the T/C (endpoint: median survival time, dose: 32.0 mg/kg/injection, schedule: Q01DX009 (ip), vehicle: water, higher = longer survival) was 103 % of control and the T/C (endpoint: median survival time, dose: 64.0 mg/kg/injection, schedule: Q01DX009 (ip), vehicle: water, higher = longer survival) was 98 % of control.

`Nc1nc2c(c(=O)[nH]1)NC(CCNc1ccc(C(=O)NC(CCC(=O)O)C(=O)O)cc1)CN2` (stereo unspecified) was tested, and the T/C (endpoint: mean tumor weight (est.), dose: 3.13 mg/kg/injection, schedule: Q01DX011 (ip), vehicle: other, higher = larger tumour) was 112 % of control, the T/C (endpoint: mean tumor weight (est.), dose: 6.25 mg/kg/injection, schedule: Q01DX011 (ip), vehicle: other, higher = larger tumour) was 81 % of control and the T/C (endpoint: mean tumor weight (est.), dose: 12.5 mg/kg/injection, schedule: Q01DX011 (ip), vehicle: other, higher = larger tumour) was 104 % of control. For the same compound, the T/C (endpoint: mean tumor weight (est.), dose: 25.0 mg/kg/injection, schedule: Q01DX011 (ip), vehicle: other, higher = larger tumour) was 99 % of control, the T/C (endpoint: mean tumor weight (est.), dose: 50.0 mg/kg/injection, schedule: Q01DX011 (ip), vehicle: other, higher = larger tumour) was 68 % of control and the T/C (endpoint: mean tumor weight (est.), dose: 100.0 mg/kg/injection, schedule: Q01DX011 (ip), vehicle: other, higher = larger tumour) was 63 % of control. For the same compound, the T/C (endpoint: mean tumor weight, dose: 6.25 mg/kg/injection, schedule: Q01DX011 (ip), vehicle: other, higher = larger tumour) was 100 % of control, the T/C (endpoint: mean tumor weight, dose: 25.0 mg/kg/injection, schedule: Q01DX011 (ip), vehicle: other, higher = larger tumour) was 101 % of control and the T/C (endpoint: mean tumor weight, dose: 50.0 mg/kg/injection, schedule: Q01DX011 (ip), vehicle: other, higher = larger tumour) was 78 % of control. For the same compound, the T/C (endpoint: mean tumor weight, dose: 100.0 mg/kg/injection, schedule: Q01DX011 (ip), vehicle: other, higher = larger tumour) was 68 % of control, the T/C (endpoint: median survival time, dose: 6.25 mg/kg/injection, schedule: Q01DX011 (ip), vehicle: other, higher = longer survival) was 94 % of control and the T/C (endpoint: median survival time, dose: 12.5 mg/kg/injection, schedule: Q01DX011 (ip), vehicle: other, higher = longer survival) was 103 % of control. The T/C (endpoint: median survival time, dose: 25.0 mg/kg/injection, schedule: Q01DX011 (ip), vehicle: other, higher = longer survival) was 98 % of control and the T/C (endpoint: median survival time, dose: 100.0 mg/kg/injection, schedule: Q01DX011 (ip), vehicle: other, higher = longer survival) was 108 % of control.

`CCCCCCCCCCCC(c1ccccc1)[N+](C)(C)C` (stereo unspecified) was tested, and the T/C (endpoint: mean tumor weight (est.), dose: 2.0 mg/kg/injection, schedule: Q01DX011 (ip), vehicle: saline, higher = larger tumour) was 89 % of control, the T/C (endpoint: mean tumor weight (est.), dose: 4.0 mg/kg/injection, schedule: Q01DX011 (ip), vehicle: saline, higher = larger tumour) was 76 % of control and the T/C [2] was 104 % of control. For the same compound, the T/C [3] was 108 % of control.

For `N=c1ccn2c(n1)OC1C(OP(=O)(O)O)C(CO)OC12` (stereo unspecified), the T/C (endpoint: mean tumor weight (est.), dose: 12.5 mg/kg/injection, schedule: Q01DX011 (oral), vehicle: water, higher = larger tumour) was 79 % of control, the T/C (endpoint: mean tumor weight (est.), dose: 25.0 mg/kg/injection, schedule: Q01DX011 (oral), vehicle: water, higher = larger tumour) was 71 % of control and the T/C (endpoint: mean tumor weight (est.), dose: 50.0 mg/kg/injection, schedule: Q01DX011 (oral), vehicle: water, higher = larger tumour) was 13 % of control. For the same compound, the T/C (endpoint: mean tumor weight (est.), dose: 100.0 mg/kg/injection, schedule: Q01DX011 (oral), vehicle: water, higher = larger tumour) was 12 % of control, the T/C (endpoint: mean tumor weight (est.), dose: 200.0 mg/kg/injection, schedule: Q01DX011 (oral), vehicle: water, higher = larger tumour) was 12 % of control and the T/C (endpoint: median survival time, dose: 12.5 mg/kg/injection, schedule: Q01DX011 (oral), vehicle: water, higher = longer survival) was 109 % of control. For the same compound, the T/C (endpoint: median survival time, dose: 25.0 mg/kg/injection, schedule: Q01DX011 (oral), vehicle: water, higher = longer survival) was 105 % of control, the T/C (endpoint: median survival time, dose: 50.0 mg/kg/injection, schedule: Q01DX011 (oral), vehicle: water, higher = longer survival) was 118 % of control and the T/C (endpoint: median survival time, dose: 100.0 mg/kg/injection, schedule: Q01DX011 (oral), vehicle: water, higher = longer survival) was 120 % of control. For the same compound, the T/C (endpoint: median survival time, dose: 200.0 mg/kg/injection, schedule: Q01DX011 (oral), vehicle: water, higher = longer survival) was 116 % of control.

For `N#Cc1c(F)c(F)c(C#N)c(F)c1F`, the T/C (endpoint: mean tumor weight (est.), dose: 1.25 mg/kg/injection, schedule: Q01DX011 (ip), vehicle: saline with Tween-80, higher = larger tumour) was 100 % of control, the T/C (endpoint: mean tumor weight (est.), dose: 2.5 mg/kg/injection, schedule: Q01DX011 (ip), vehicle: saline with Tween-80, higher = larger tumour) was 95 % of control and the T/C (endpoint: mean tumor weight (est.), dose: 5.0 mg/kg/injection, schedule: Q01DX011 (ip), vehicle: saline with Tween-80, higher = larger tumour) was 101 % of control. The T/C (endpoint: mean tumor weight (est.), dose: 10.0 mg/kg/injection, schedule: Q01DX011 (ip), vehicle: saline with Tween-80, higher = larger tumour) was 70 % of control, the T/C (endpoint: median survival time, dose: 1.25 mg/kg/injection, schedule: Q01DX011 (ip), vehicle: saline with Tween-80, higher = longer survival) was 87 % of control and the T/C (endpoint: median survival time, dose: 10.0 mg/kg/injection, schedule: Q01DX011 (ip), vehicle: saline with Tween-80, higher = longer survival) was 89 % of control.
